Source: patent US10730826B2, “Ketone inhibitors of lysine gingipain” (CORTEXYME, INC., priority 2016, dated 2020)
Where two headings read alike, the source gives them in different places.

Legend:
Cathepsin B = Cathepsin B (Homo sapiens (Human), UniProt P07858); assay: Cathepsin B inhibition assay; format: biochemical; conditions: for IC50: read-out: IC50 (nM) CatB
Protocol: (§1) The capacities of compounds of the present invention to inhibit the activity of cathepsins B, H, K, L, and S were measured in similar assays. Boc-Leu-Arg-Arg-AMC (20 μM) in sodium acetate buffer (50 mM, pH 5.5) containing DTT (1 mM) and EDTA (2 mM) was used for the Cathepsin B assay. L-Arg-AMC (20 μM) in sodium acetate buffer (50 mM, pH 5.5) containing DTT (1 mM) and EDTA (2 mM) was used for the Cathepsin H assay. Z-Phe-Arg-AMC (10 μM) in HEPES buffer (50 mM, pH 7.4) containing DTT (2.5 mM) and EDTA (1 mM) was used for the Cathepsin K assay. Z-Phe-Arg-AMC (20 μM) in sodium acetate buffer (50 mM, pH 5.5) containing DTT (1 mM) and EDTA (2 mM) was used for the Cathepsin L assay. Z-Leu-Arg-AMC (10 μM) in sodium acetate buffer (25 mM, pH 4.5) containing DTT (2.5 mM) and NaCl (50 mM) was used for the Cathepsin S assay. The capacities of the compounds to inhibit the activity of cathepsins F, V, and Z were also measured.
(§2) Further assays to measure the inhibitory activity of compounds of the present invention against Kgp and cathepsins B, H, K, L, and S were conducted as described in Example 66. The capacities of the compounds to inhibit the activity of cathepsins F, V, and Z were also measured.

Cathepsin H = Cathepsin H (Homo sapiens (Human), UniProt P09668); assay: Cathepsin H inhibition assay; format: biochemical
Protocol: as §1, §2

Cathepsin L = Cathepsin L (Homo sapiens (Human), UniProt P07711); assay: Cathepsin L inhibition assay; format: biochemical; conditions: for IC50: read-out: IC50 (nM) CatL
Protocol: as §1, §2

Cathepsin S = Cathepsin S (Homo sapiens (Human), UniProt P25774); assay: Cathepsin S inhibition assay; format: biochemical; conditions: for IC50: read-out: IC50 (nM) CatS
Protocol: as §1, §2

Cathepsin K = Cathepsin K (Homo sapiens (Human), UniProt P43235); assay: Cathepsin K inhibition assay; format: biochemical; conditions: for IC50: read-out: IC50 (nM) CatK
Protocol: as §1, §2

lysine gingipain (Kgp) [1] = assay: biochemical; format: biochemical, Porphyromonas gingivalis; conditions: as compared to reference compound 73
Protocol: (§3) The specific assay conditions were as follows. Buffer: pH=7.5, 100 mM Tris-HCl, 75 mM NaCl, 2.5 mM CaCl2), 10 mM cysteine, 1% DMSO after all additions. Protein: 0.1 nM Kgp, isolated from culture of Porphyromonas gingivalis, as described by Pike et al. (J. Biol. Chem. 1994, 269(1), 406), and Potempa and Nguyen (Current Protocols in Protein Science. 2007, 21.20.1-21.20.27). Fluorogenic substrate: 10 μM Z-His-Glu-Lys-MCA. Time=90 minutes. Temperature=37° C.
as §2

lysine gingipain (Kgp) [2] = target: lysine gingipain (Kgp) (Porphyromonas gingivalis (Bacteroides gingivalis), UniProt P72194); assay: biochemical; format: biochemical; conditions: IC50 (nM) Kgp
Protocol: as §3, §2

Structure (SMILES)	IC50 (Cathepsin B; Table 3) [nM]	IC50 (Cathepsin L; Table 3) [nM]	IC50 (Cathepsin S; Table 3) [nM]	IC50 (Cathepsin K; Table 3) [nM]	IC50 (lysine gingipain (Kgp) [2]; Table 3) [nM]	IC50 (lysine gingipain (Kgp) [2]; Table 4) [nM]	further results
NCCCC[C@H](NC(=O)C1CCCC1)C(=O)COc1c(F)ccc(F)c1F (racemic) [1a - non-racemic]	380	4680	29500	170			IC50 (Cathepsin H; Table 3, read-out: IC50 (nM) CatH): 560 nM
NCCCC[C@H](NC(=O)C1CCCC1)C(=O)COc1c(F)cccc1F [Compound 2, (S)—N-(7-amino-1-(2,6-difluorophenoxy)-2-oxoheptan-3-yl)cyclopentanecarboxamide]							CatB IC50 relative to reference compound 73 (Cathepsin B; ratio to IC50 of compound 73): more than 20 times; CatH IC50 relative to reference compound 73 (Cathepsin H; ratio to IC50 of compound 73): more than ten times higher; CatL IC50 relative to reference compound 73 (Cathepsin L; ratio to IC50 of compound 73): more than 100 times; CatS IC50 relative to reference compound 73 (Cathepsin S; ratio to IC50 of compound 73): more than ten times higher; selectivity for Kgp over endogenous cathepsins (lysine gingipain (Kgp) [1]): increased selectivity; CatK IC50 relative to reference compound 73 (Cathepsin K; ratio to IC50 of compound 73): more than 100 times
NCCCCC(NC(=O)C1CCCC1)C(=O)COc1ccccc1F (stereo not shown) [Compound 3a]	52200	> 100000	> 100000	> 100000	0.64		
NCCCCC(NC(=O)C1CCCC1)C(=O)COc1cc(F)cc(F)c1F (stereo not shown) [Compound 4a]	2640	> 100000	> 100000	> 100000	0.07		
NCCCCC(NC(=O)C1CCCC1)C(=O)COc1cccc(F)c1F (stereo not shown) [Compound 5a]	21500	> 100000	> 100000	> 100000	0.15		
NCCCCC(NC(=O)C1CCCC1)C(=O)COc1cc(F)ccc1F (stereo not shown) [Compound 6a]	20300	> 100000	42800	> 100000	0.19		
NCCCC[C@H](NC(=O)C1CCCC1)C(=O)COc1cccc(F)c1 [Compound 7, (S)—N-(7-amino-1-(3-fluorophenoxy)-2-oxoheptan-3-yl)cyclopentanecarboxamide]							selectivity for Kgp over endogenous cathepsins (lysine gingipain (Kgp) [1]): increased selectivity
NCCCCC(NC(=O)C1CCCC1)C(=O)COc1cccc(F)c1 (stereo not shown) [Compound 7a]	49600	5530	24100	20200	1.3	1.3	IC50 (Cathepsin B; Table 4): > 10000 nM; IC50 (Cathepsin L; Table 4): > 10000 nM; IC50 (Cathepsin S; Table 4): > 10000 nM; IC50 (Cathepsin K; Table 4): > 10000 nM
NCCCCC(NC(=O)C1CCCC1)C(=O)COc1cc(F)cc(F)c1 (stereo not shown) [Compound 8a]	68300	> 100000	> 100000	> 100000	0.34		
[N-]=[N+]=Nc1cccc(C(=O)NC(CCCCN)C(=O)COc2c(F)cccc2F)c1 (stereo not shown) [Compound 12a]					0.08		
CSCC(=O)C(CCCCN)NC(=O)C1CCCC1 (stereo not shown) [Compound 16a]					> 100		
NCCCCC(NC(=O)C1CCCC1)C(=O)COCC(F)(F)F (stereo not shown) [Compound 17a]					> 100		
NCCCC[C@H](NC(=O)C1CCCC1)C(=O)COC(C(F)(F)F)C(F)(F)F [Compound 18, (S)—N-(7-amino-1-((1,1,1,3,3,3-hexafluoropropan-2-yl)oxy)-2-oxoheptan-3-yl)cyclopentanecarboxamide]							selectivity for Kgp over endogenous cathepsins (lysine gingipain (Kgp) [1]): far more selective
CN(C)CC(=O)C(CCCCN)NC(=O)C1CCCC1 (stereo not shown) [Compound 19a]					> 100		
CS(=O)(=O)CC(=O)C(CCCCN)NC(=O)C1CCCC1 (stereo not shown) [Compound 20a]					> 100		
NCCCCC(NC(=O)c1cccc(F)c1)C(=O)COc1c(F)cccc1F (stereo not shown) [Compound 26a]						0.09	
NCCCCC(NC(=O)c1cccc(OCCF)c1)C(=O)COc1c(F)cccc1F (stereo not shown) [Compound 27a]						0.27	
NCCCCC(NC(=O)c1cccc(F)n1)C(=O)COc1c(F)cccc1F (stereo not shown) [Compound 28a]						0.34	
NCCCCC(NC(=O)c1ccc(F)nc1)C(=O)COc1c(F)cccc1F (stereo not shown) [Compound 29a]						0.31	
NCCCCC(NC(=O)c1cccc(OCCCF)c1)C(=O)COc1c(F)cccc1F (stereo not shown) [Compound 30a]						0.21	
NCCCCC(NC(=O)c1ccnc(F)c1)C(=O)COc1c(F)cccc1F (stereo not shown) [Compound 31a]						0.15	
NCCCCC(NC(=O)c1cccnc1F)C(=O)COc1c(F)cccc1F (stereo not shown) [Compound 32a]						0.08	
[N-]=[N+]=Nc1cccc(C(=O)NC(CCCCN)C(=O)COc2c(F)cccc2F)c1 (stereo not shown) [Compound 33a]						0.08	
